The source made the active and inactive calls. No cut-off for these calls is given here.
Key:
MCF7 = assay: Antiproliferative activity against human MCF7 cells assessed as inhibition of cell proliferation incubated for 72 hrs by MTT assay; format: functional, cell-based; conditions: MCF7, 72 h
[1] = Selectivity index, ratio of IC50 for antiproliferative activity against human LO2 cells to IC50 for antiproliferative activity against human HGC-27 cells; format: toxicity, cell-based; conditions: LO2 cells and HGC-27 cells, read-out: Ratio IC50
HCT-116 = assay: Antiproliferative activity against human HCT-116 cells assessed as inhibition of cell proliferation incubated for 72 hrs by MTT assay; format: functional, cell-based; conditions: HCT-116, 72 h
AGS [2] = assay: Induction of apoptosis in human AGS cells assessed as late apoptotic cells at 1 uM incubated for 48 hrs by annexin V-FITC and PI staining based flow cytometry analysis (reference value: 3.15%); format: functional
HGC-27 [3] = assay: Induction of apoptosis in human HGC-27 cells assessed as late apoptotic cells at 1 uM incubated for 48 hrs by annexin V-FITC and PI staining based flow cytometry analysis (reference value: 5.02%); format: functional
SGC-7901 = assay: Antiproliferative activity against human SGC-7901 cells assessed as inhibition of cell proliferation incubated for 72 hrs by MTT assay; format: functional, cell-based; conditions: SGC-7901, 72 h
HGC-27 [4] = assay: Upregulation of MAP1LC3B mRNA expression in human HGC-27 cells at 2 uM incubated for 24 hrs; format: functional, cell-based
AGS [5] = assay: Induction of autophagy in human AGS cells assessed as upregulation of Beclin1 protein level at 0.5 to 2 uM incubated for 48 hrs by Western blotting analysis; format: functional, cell-based; conditions: dose 0.5-2 µM
HGC-27 [6] = assay: Induction of apoptosis in human HGC-27 cells assessed as viable cells at 0.5 uM incubated for 48 hrs by annexin V-FITC and PI staining based flow cytometry analysis (reference value: 91.8%); format: functional; conditions: read-out: Activity
HGC-27 [7] = assay: Antiproliferative activity against human HGC-27 cells assessed as inhibition of cell proliferation incubated for 72 hrs by MTT assay; format: functional, cell-based; conditions: HGC-27, 72 h
AGS [8] = assay: Antiproliferative activity against human AGS cells assessed as inhibition of cell proliferation incubated for 72 hrs by MTT assay; format: functional, cell-based
HGC-27 [9] = assay: Induction of autophagy in human HGC-27 cells assessed as upregulation of Beclin1 protein level at 0.5 to 2 uM incubated for 48 hrs by Western blotting analysis; format: functional, cell-based; conditions: dose 0.5-2 µM
AGS [10] = assay: Downregulation of Bcl-xl protein level in human AGS cells at 0.5 to 2 uM by Western blotting analysis; format: functional, cell-based; conditions: dose 0.5-2 µM
AGS [11] = assay: Induction of apoptosis in human AGS cells assessed as late apoptotic cells at 2 uM incubated for 48 hrs by annexin V-FITC and PI staining based flow cytometry analysis (reference value: 3.15%); format: functional
[12] = Antiproliferative activity against human LO2 cells assessed as inhibition of cell proliferation incubated for 72 hrs by MTT assay; format: toxicity, cell-based, L02
[13] = Acute toxicity in male ICR mouse assessed as abnormal hepatocyte morphology at 1 g/Kg, ip measured after 7 days by H and E staining based light microscopic analysis; format: organism-based; conditions: in vivo, 1000 mg/kg, 168 h, time 7 day
AGS [14] = assay: Induction of apoptosis in human AGS cells assessed as increase in cleaved PARP expression at 0.5 to 2 uM incubated overnight by Western blotting analysis; format: functional, cell-based; conditions: dose 0.5-2 µM
HGC-27 [15] = assay: Induction of apoptosis in human HGC-27 cells assessed as early apoptotic cells at 0.5 uM incubated for 48 hrs by annexin V-FITC and PI staining based flow cytometry analysis (reference value: 3.13%); format: functional
HGC-27 [16] = assay: Induction of apoptosis in human HGC-27 cells assessed as early apoptotic cells at 2 uM incubated for 48 hrs by annexin V-FITC and PI staining based flow cytometry analysis (reference value: 3.13%); format: functional
HepG2 = assay: Antiproliferative activity against human HepG2 cells assessed as inhibition of cell proliferation incubated for 72 hrs by MTT assay; format: functional, cell-based; conditions: HepG2, 72 h
HGC-27 [17] = assay: Downregulation of SRSF1 mRNA expression in human HGC-27 cells incubated for 24 hrs by SYBR green dye based RT-qPCR analysis; format: functional, cell-based; conditions: dose 0.5-2 µM
AGS [18] = assay: Induction of apoptosis in human AGS cells assessed as viable cells at 2 uM incubated for 48 hrs by annexin V-FITC and PI staining based flow cytometry analysis (reference value: 92.0%); format: functional; conditions: read-out: Activity
HGC-27 [19] = assay: Induction of apoptosis in human HGC-27 cells assessed as increase in cleaved PARP expression at 0.5 to 2 uM incubated overnight by Western blotting analysis; format: functional, cell-based; conditions: dose 0.5-2 µM
HGC-27 [20] = assay: Induction of autophagy in human HGC-27 cells assessed as upregulation of LC3 II protein level at 0.5 to 2 uM incubated for 48 hrs by Western blotting analysis; format: functional, cell-based; conditions: dose 0.5-2 µM
HGC-27 [21] = assay: Induction of cell cycle arrest in human HGC-27 cells assessed as reduction in CyclinE2 expression at 0.5 to 2 uM by Western blotting analysis; format: functional, cell-based; conditions: dose 0.5-2 µM
AGS [22] = assay: Induction of autophagy in human AGS cells assessed as upregulation of LC3 I protein level at 0.5 to 2 uM incubated for 48 hrs by Western blotting analysis; format: functional, cell-based; conditions: dose 0.5-2 µM
HGC-27 [23] = assay: Antitumor activity against human HGC-27 cells xenografted in male BALB/c nude mouse assessed as tumor growth suppression administered intraperitoneally every day for 15 days; format: functional, cell-based; conditions: dose 25-100 mg/kg, route ip, time 15.0 day
HGC-27 [24] = assay: Induction of apoptosis in human HGC-27 cells assessed as necrotic cells at 0.5 uM incubated for 48 hrs by annexin V-FITC and PI staining based flow cytometry analysis (reference value: 0.062%); format: functional
AGS [25] = assay: Induction of apoptosis in human AGS cells assessed as early apoptotic cells at 0.5 uM incubated for 48 hrs by annexin V-FITC and PI staining based flow cytometry analysis (reference value: 4.44%); format: functional
HGC-27 [26] = assay: Downregulation of Bcl-xl protein level in human HGC-27 cells at 0.5 to 2 uM by Western blotting analysis; format: functional, cell-based; conditions: dose 0.5-2 µM
AGS [27] = assay: Induction of autophagy in human AGS cells assessed as downregulation of P62 protein level at 0.5 to 2 uM incubated for 48 hrs by Western blotting analysis; format: functional, cell-based; conditions: dose 0.5-2 µM
AGS [28] = assay: Downregulation of SRSF1 protein level in human AGS cells at 0.5 to 2 uM by Western blotting analysis; format: functional, cell-based; conditions: dose 0.5-2 µM
HGC-27 [29] = assay: Upregulation of BECN1 mRNA expression in human HGC-27 cells at 2 uM incubated for 24 hrs; format: functional, cell-based
HGC-27 [30] = assay: Induction of apoptosis in human HGC-27 cells assessed as increase in cleaved caspase-3 expression at 0.5 to 2 uM incubated overnight by Western blotting analysis; format: functional, cell-based; conditions: dose 0.5-2 µM
AGS [31] = assay: Induction of apoptosis in human AGS cells assessed as early apoptotic cells at 2 uM incubated for 48 hrs by annexin V-FITC and PI staining based flow cytometry analysis (reference value: 4.44%); format: functional
HGC-27 [32] = assay: Induction of apoptosis in human HGC-27 cells assessed as late apoptotic cells at 0.5 uM incubated for 48 hrs by annexin V-FITC and PI staining based flow cytometry analysis (reference value: 5.02%); format: functional
[33] = Selectivity index, ratio of IC50 for antiproliferative activity against human LO2 cells to IC50 for antiproliferative activity against human AGS cells; format: cell-based; conditions: LO2 cells and AGS cells, read-out: Ratio IC50

**Q.** For `CC(C)[C@]12O[C@H]1[C@@H]1O[C@]13[C@]1(O[C@H]1C[C@H]1C4=C(CC[C@@]13C)C(=S)OC4)[C@@H]2O`, which IC50 (MCF7) is on record?
**A.** 760 nM

**Q.** And the selectivity ratio [1]?
**A.** 6.56

**Q.** What about the IC50 (HCT-116) of the same molecule?
**A.** 400 nM

**Q.** And the Activity (AGS [2])?
**A.** 17%

**Q.** And the Activity (HGC-27 [3])?
**A.** 9.29%

**Q.** What about the IC50 (SGC-7901) of the same molecule?
**A.** 1800 nM

**Q.** And the Activity (HGC-27 [4])?
**A.** Active

**Q.** And the Activity (AGS [5])?
**A.** Active

**Q.** What about the viability at 0.5 µM (HGC-27 [6]) of the same molecule?
**A.** 85.9%

**Q.** What about the IC50 (HGC-27 [7]) of the same molecule?
**A.** 330 nM

**Q.** And the IC50 (AGS [8])?
**A.** 640 nM

**Q.** What about the Activity (HGC-27 [9]) of the same molecule?
**A.** Active

**Q.** What about the Activity (AGS [10]) of the same molecule?
**A.** Active

**Q.** And the Activity (AGS [11])?
**A.** 31.7%

**Q.** And the IC50 at 72 h [12]?
**A.** 2860 nM

**Q.** What about the Activity [13] of the same molecule?
**A.** Non-toxic

**Q.** And the Activity (AGS [14])?
**A.** Active

**Q.** What about the Activity (HGC-27 [15]) of the same molecule?
**A.** 3.5%

**Q.** What about the Activity (HGC-27 [16]) of the same molecule?
**A.** 28.1%

**Q.** What about the IC50 (HepG2) of the same molecule?
**A.** 350 nM

**Q.** What about the Activity (HGC-27 [17]) of the same molecule?
**A.** Dose-dependent-effect

**Q.** What about the viability at 2 µM (AGS [18]) of the same molecule?
**A.** 35.9%

**Q.** What about the Activity (HGC-27 [19]) of the same molecule?
**A.** Active

**Q.** And the Activity (HGC-27 [20])?
**A.** Active

**Q.** What about the Activity (HGC-27 [21]) of the same molecule?
**A.** Active

**Q.** What about the Activity (AGS [22]) of the same molecule?
**A.** Active

**Q.** What about the Activity (HGC-27 [23]) of the same molecule?
**A.** Dose-dependent-effect

**Q.** And the Activity (HGC-27 [24])?
**A.** 0.13%

**Q.** What about the Activity (AGS [25]) of the same molecule?
**A.** 9.27%

**Q.** And the Activity (HGC-27 [26])?
**A.** Active

**Q.** What about the Activity (AGS [27]) of the same molecule?
**A.** Active

**Q.** And the Activity (AGS [28])?
**A.** Active

**Q.** And the Activity (HGC-27 [29])?
**A.** Active

**Q.** What about the Activity (HGC-27 [30]) of the same molecule?
**A.** Active

**Q.** What about the Activity (AGS [31]) of the same molecule?
**A.** 31.6%

**Q.** And the Activity (HGC-27 [32])?
**A.** 10.5%

**Q.** What about the selectivity ratio [33] of the same molecule?
**A.** 4.55
